The results in this text go back to ChEMBL document CHEMBL3124935, “Synthesis and study of cytotoxic activity of 1,2,4-trioxane- and egonol-derived hybrid molecules against Plasmodium falciparum and multidrug-resistant human leukemia cells” (Eur J Med Chem, 2014).

One may read the pIC50 as the negative decadic logarithm of the IC50, by convention in mol/L.

One experiment relates to Plasmodium falciparum. Nature of the experiment: Antimalarial activity against Plasmodium falciparum 3D7 assessed as growth inhibition after 3 days by HRP2 based ELISA. The experiment is classed as functional, organism-based. As to conditions: 3D7, 72 h. A general note: In an ELISA, binding on a coated surface is turned into a signal by an enzyme label; call rule not given here.
The nature of experiment [1]: Cytotoxicity against human multidrug-resistant CEM/ADR5000 cells expressing p-glycoprotein by resazurin assay. The class given is functional, cell-based. A general note: Alamar Blue is a resazurin reagent that responds to reducing activity.
The subject of experiment [2] is CCRF-CEM. The experiment is described as follows: Cytotoxicity against human CCRF-CEM cells by resazurin assay. The class given is functional, cell-based.
The test system of experiment [3] is CCRF-CEM. The experiment is described as follows: Resistance ratio of IC50 for human multidrug-resistant CEM/ADR5000 cells expressing p-glycoprotein to IC50 for human CCRF-CEM cells. The class given is functional.
Experiment [4] in a line: Cytotoxicity against human multidrug-resistant CEM/ADR5000 cells expressing p-glycoprotein at 400 uM by resazurin assay. The experiment is classed as functional, cell-based.

pIC50: −log10 of the molar value.

On to `C[C@H]1[C@H](OC(=O)CCC(=O)NCC(O)CNC(=O)CCC(=O)O[C@@H]2O[C@@H]3O[C@@]4(C)CC[C@H]5[C@H](C)CC[C@@H]([C@H]2C)[C@@]35OO4)O[C@@H]2O[C@@]3(C)CC[C@H]4[C@H](C)CC[C@@H]1[C@@]24OO3` (some centres undefined), for which the pIC50 in the experiment with Plasmodium falciparum was 9.49.

Regarding `C[C@H]1[C@H](OC(=O)CCC(=O)NCCCCCCCCNC(=O)CCC(=O)O[C@@H]2O[C@@H]3O[C@@]4(C)CC[C@H]5[C@H](C)CC[C@@H]([C@H]2C)[C@@]35OO4)O[C@@H]2O[C@@]3(C)CC[C@H]4[C@H](C)CC[C@@H]1[C@@]24OO3`, the negative logarithm of the IC50 (pIC50) with Plasmodium falciparum is 9.52.

Regarding `COc1cc(CCCOC(=O)CCC(=O)O[C@@H]2O[C@@H]3O[C@@]4(C)CC[C@H]5[C@H](C)CC[C@@H]([C@H]2C)[C@@]35OO4)cc2cc(-c3ccc4c(c3)OCO4)oc12`, the pIC50 is 5.95 in experiment [1], 6.74 with CCRF-CEM [2] and 8.64 in the experiment on Plasmodium falciparum. In addition, in the experiment on CCRF-CEM [3], the “Ratio IC50” value worked out at 6.12.

Regarding `C[C@@H]1CC[C@H]2[C@@H](C)C(CCCO)O[C@@H]3O[C@@]4(C)CC[C@@H]1[C@]32OO4` (some centres undefined), the IC50 result in experiment [4] is reported as “Not Active”. For the same compound, in the experiment with CCRF-CEM [2], the pIC50 is 3.76.

With `C[C@@H]1CC[C@H]2[C@@H](C)C(=O)O[C@@H]3O[C@@]4(C)CC[C@@H]1[C@]32OO4` [ARTEMISININ], the “Ratio IC50” value in the experiment on CCRF-CEM [3] is on record as 0.73.

As for `C[C@H]1[C@H](OC(=O)CCC(=O)O)O[C@@H]2O[C@@]3(C)CC[C@H]4[C@H](C)CC[C@@H]1[C@@]24OO3` [ARTESUNATE], the pIC50 in experiment [1] was 5.92; in the experiment on Plasmodium falciparum it was 9.09. Also, the “Ratio IC50” value with CCRF-CEM [3] came to 0.67.

For `COc1cccc2c1C(=O)c1c(O)c3c(c(O)c1C2=O)C[C@@](O)(C(=O)CO)C[C@@H]3O[C@H]1C[C@H](N)[C@H](O)[C@H](C)O1` [DOXORUBICIN], the pIC50 in experiment [1] is 4.63; with CCRF-CEM [2] it was 8.05. Besides, in the experiment on CCRF-CEM [3], the “Ratio IC50” value was 2585.

Consider `COc1cc(CCCO)cc2cc(-c3ccc4c(c3)OCO4)oc12` [EGONOL], for which the pIC50 in experiment [1] is 5.01; with CCRF-CEM [2], 5.24; in the experiment with Plasmodium falciparum, 4.59. Moreover, the “Ratio IC50” value in the experiment on CCRF-CEM [3] worked out at 1.7.
